The assay deals with 5-HT1D receptor (Bos taurus). As to the kind of experiment: Inhibition affinity against 5-HT-1D receptor in bovine caudate nucleus using radio binding assay.

As a reminder, the IC50 is the midpoint of a concentration-inhibition curve. `Cc1nc(-c2ccc(-c3ccc(C(=O)Nc4ccc(OS(=O)(=O)C(F)(F)F)c(N5CCN(C)CC5)c4)cc3)c(C)c2)no1` [Trifluoro-methanesulfonic acid 4-{[2'-methyl-4'-(5-methyl-[1,2,4]oxadiazol-3-yl)-biphenyl-4-carbonyl]-amino}-2-(4-methyl-piperazin-1-yl)-phenyl ester] registered an IC50 of over 1000 nM.

The record behind these values is BindingDB's records for doi:10.1021/jm990397l (University of Groningen, 2000).
